From US12692254B2, “Benzimidazole inhibitors of PAD enzymes” (BRISTOL-MYERS SQUIBB COMPANY, priority 2018, dated 2026)

The compounds below were run against human PAD4 (hPAD4) (Homo sapiens, UniProt Q9UM07) (assay: RFMS human PAD4 functional assay (rapid-fire mass spectrum)). Details: 5 nM hPAD4 enzyme, 250 μM BAEE, 50 μM Calcium; 30 min preincubation, 90 min reaction at 37° C.
Assay type: biochemical
Summary of the method: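 PAD4 (10 nM) preincubated 30 min with compound (top final 50 μM), then BAEE substrate added in pH 7.5 HEPES buffer with DTT, 50 μM calcium, TPEN; 90 min at 37° C. After TCA quench, citrulline derivatized with phenyl glyoxal (4 mM final, 30 min, 37° C) and quantified by RapidFire MS against internal standard.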

Sequence of human PAD4 (hPAD4) (Q9UM07 whole entry): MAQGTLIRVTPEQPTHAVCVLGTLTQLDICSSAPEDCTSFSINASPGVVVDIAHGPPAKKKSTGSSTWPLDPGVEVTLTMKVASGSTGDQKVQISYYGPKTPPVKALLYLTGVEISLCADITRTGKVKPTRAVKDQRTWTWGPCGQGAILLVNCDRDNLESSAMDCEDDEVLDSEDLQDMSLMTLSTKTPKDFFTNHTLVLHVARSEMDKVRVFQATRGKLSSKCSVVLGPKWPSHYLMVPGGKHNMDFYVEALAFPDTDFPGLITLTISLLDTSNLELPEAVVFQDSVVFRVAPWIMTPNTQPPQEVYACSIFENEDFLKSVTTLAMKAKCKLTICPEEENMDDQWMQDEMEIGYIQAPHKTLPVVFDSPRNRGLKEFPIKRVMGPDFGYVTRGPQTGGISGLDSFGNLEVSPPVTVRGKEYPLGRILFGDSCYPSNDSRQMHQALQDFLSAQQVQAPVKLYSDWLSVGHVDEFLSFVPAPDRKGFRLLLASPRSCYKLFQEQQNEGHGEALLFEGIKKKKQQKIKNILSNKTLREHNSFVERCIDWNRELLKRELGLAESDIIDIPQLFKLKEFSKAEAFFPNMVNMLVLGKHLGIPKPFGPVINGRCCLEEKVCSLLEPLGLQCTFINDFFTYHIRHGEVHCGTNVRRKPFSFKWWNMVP

| Structure (SMILES) | IC50 |
| --- | --- |
| COc1cc(C(=O)N2CC3CCC2[C@@H]3N)cc2nc(-c3cc4ccccc4n3CC3CC3)n(Cc3cnn(-c4ccc(C)nc4)c3)c12 (stereo partly drawn) [Example 350, (7R)-2-{2-[1-(cyclopropylmethyl)-1H-indol-2-yl]-7-methoxy-1-{[1-(6-methylpyridin-3-yl)-1H-pyrazol-4-yl]methyl}-1H-1,3-benzodiazole-5-carbonyl}-2-azabicyclo[2.2.1]heptan-7-amine] | 16 nM |
| COc1cc(C(=O)N2CC3CCC2[C@@H]3N)cc2nc(-c3cc4ccccc4n3CC3CC3)n(Cc3cnn(-c4cncc(C#N)c4)c3)c12 (stereo partly drawn) [Example 351, 5-[4-({5-[(7R)-7-amino~2-azabicyclo[2.2.1]heptane-2-carbonyl]-2-[1-(cyclopropylmethyl)-1H-indol-2-yl]-7-methoxy-1H-1,3-benzodiazol-1-yl}methyl)-1H-pyrazol-1-yl]pyridine-3-carbonitrile] | 18 nM |
| COc1cncc(-n2cc(Cn3c(-c4cc5cccnc5n4CC4CC4)nc4cc(C(=O)N5CC6CCC5[C@@H]6N)cc(OC)c43)cn2)c1 (stereo partly drawn) [Example 352, (7R)-2-{2-[1-(cyclopropylmethyl)-1H-pyrrolo[2,3-b]pyridin-2-yl]-7-methoxy-1-{[1-(5-methoxypyridin-3-yl)-1H-pyrazol-4-yl]methyl}-1H-1,3-benzodiazole-5-carbonyl}-2-azabicyclo[2.2.1]heptan-7-amine] | 19 nM |
| COc1cc(C(=O)N2CC3CCC2[C@@H]3N)cc2nc(-c3cc4cccnc4n3CC3CC3)n(Cc3cnn(-c4cccc(O)n4)c3)c12 (stereo partly drawn) [Example 353, 6-[4-({5-[(7R)-7-amino-2-azabicyclo[2.2.1]heptane-2-carbonyl]-2-[1-(cyclopropylmethyl)-1H-pyrrolo[2,3-b]pyridin-2-yl]-7-methoxy-1H-1,3-benzodiazol-1-yl}methyl)-1H-pyrazol-1-yl]pyridin-2-ol] | 20 nM |
| COc1ccc(-n2cc(Cn3c(-c4cc5ccccc5n4CC4CC4)nc4cc(C(=O)N5CC6CCC5[C@@H]6N)cc(OC)c43)cn2)cn1 (stereo partly drawn) [Example 354, (7R)-2-{2-[1-(cyclopropylmethyl)-1H-indol-2-yl]-7-methoxy-1-{[1-(6-methoxypyridin-3-yl)-1H pyrazol-4-yl]methyl}-1H-1,3-benzodiazole-5-carbonyl}-2-azabicyclo[2.2.1]heptan-7-amine] | 22 nM |
| COc1cc(C(=O)N2CC3CCC2[C@@H]3N)cc2nc(-c3cc4cccnc4n3CC3CC3)n(Cc3cnn(-c4cccc(C)n4)c3)c12 (stereo partly drawn) [Example 355, (7R)-2-{2-[1-(cyclopropylmethyl)-1H-pyrrolo[2,3-b]pyridin-2-yl]-7-methoxy-1-{[1-(6-methylpyridin-2-yl)-1H-pyrazol-4-yl]methyl}-1H-1,3-benzodiazole-5-carbonyl}-2-azabicyclo[2.2.1]heptan-7-amine] | 22 nM |
| COc1cc(C(=O)N2CC3CCC2[C@@H]3N)cc2nc(-c3cc4cccnc4n3CC3CC3)n(Cc3cnn(-c4cccc(C(F)(F)F)n4)c3)c12 (stereo partly drawn) [Example 356, (7R)-2-{2-[1-(cyclopropylmethyl)-1H-pyrrolo[2,3-b]pyridin-2-yl]-7-methoxy-1-({1-[6-(trifluoromethyl)pyridin-2-yl]-1H-pyrazol-4-yl}methyl)-1H-1,3-benzodiazole-5-carbonyl)-2-azabicyclo[2.2.1]heptan-7-amine] | 23 nM |
| COc1cc(C(=O)N2CC3CCC2[C@@H]3N)cc2nc(-c3cc4ccccc4n3CC3CC3)n(Cc3cnn(-c4cnc(O)c(F)c4)c3)c12 (stereo partly drawn) [Example 357, 5-[4-({5-[(7R)-7-amino-2-azabicyclo[2.2.1]heptane-2-carbonyl]-2-[1-(cyclopropylmethyl)-1H-indol-2-yl]-7-methoxy-1H-1,3-benzodiazol-1-yl}methyl)-1H-pyrazol-1-yl]-3-fluoropyridin-2-ol] | 23 nM |
| COc1cc(C(=O)N2CC3CCC2[C@@H]3N)cc2nc(-c3cc4ccccc4n3CC3CC3)n(Cc3cnn(-c4cnccn4)c3)c12 (stereo partly drawn) [Example 358, (7R)-2-{2-[1-(cyclopropylmethyl)-1H-mdol-2-yl]-7-methoxy-1-{[1-(pyrazin-2-yl)-1H-pyrazol-4-yl]methyl}-1H-1,3-benzodiazole-5-carbonyl}-2-azabicyclo[2.2.1]heptan-7-amine] | 23 nM |
| COc1cc(C(=O)N2CC3CCC2[C@@H]3N)cc2nc(-c3cc4ccccc4n3CC3CC3)n(Cc3cnn(-c4cncc(F)c4)c3)c12 (stereo partly drawn) [Example 359, (7R)-2-{2-[1-(cyclopropylmethyl)-1H-indol-2-yl]-1-{[1-(5-fluoropyridin-3-yl)-1H-pyrazol-4-yl]methyl}-7-methoxy-1H-1,3-benzodiazole-5-carbonyl}-2-azabicyclo[2.2.1]heptan-7-amine] | 23 nM |
| COc1cc(C(=O)N2CC3CCC2[C@@H]3N)cc2nc(-c3cc4cccnc4n3CC3CC3)n(Cc3cnn(-c4ccc(Cl)cn4)c3)c12 (stereo partly drawn) [Example 360, (7R)-2-(1-{[1-(5-chloropyridin-2-yl)-1H-pyrazol-4-yl]methyl}-2-[1-(cyclopropylmethyl)-1H-pyrrolo[2,3-b]pyridin-2-yl]-7-methoxy-1H-1,3-benzodiazole-5-carbonyl)-2-azabicyclo[2.2.1]heptan-7-amine] | 24 nM |
| COc1cc(C(=O)N2CC3CCC2[C@@H]3N)cc2nc(-c3cc4ccccc4n3CC3CC3)n(Cc3cnn(-c4ccnc(N)c4)c3)c12 (stereo partly drawn) [Example 361, (7R)-2-(1-{[1-(2-aminopyridin-4-yl)-1H-pyrazol-4-yl]methyl}-2-[1-(cyclopropylmethyl)-1H-indol-2-yl]-7-methoxy-1H-1,3-benzodiazole-5-carbonyl)-2-azabicyclo[2.2.1]heptan-7-amine] | 25 nM |
| COc1cc(C(=O)N2CC3CCC2[C@@H]3N)cc2nc(-c3cc4ccccc4n3CC3CC3)n(Cc3cnn(-c4ccncc4)c3)c12 (stereo partly shown) [Example 362] | 25 nM |
| COc1cc(C(=O)N2C[C@H](N)C[C@@H](F)C2)cc2nc(-c3cc4cccnc4n3CC3CC3)n(Cc3cnn(-c4cccc(C)n4)c3)c12 [Example 363, (3R,5R)-1-{2-[1-(cyclopropylmethyl)-1H-pyrrolo[2,3-b]pyridin-2-yl]-7-methoxy-1-{[1-(6-methylpyridin-2-yl)-1H-pyrazol-4-yl]methyl}-1H-1,3-benzodiazole-5-carbonyl}-5-fluoropiperidin-3-amine] | 25 nM |
| COC(=O)c1cccc(-n2cc(Cn3c(-c4cc5cccnc5n4CC4CC4)nc4cc(C(=O)N5C[C@H](N)C[C@@H](F)C5)cc(OC)c43)cn2)n1 [Example 364, methyl 6-[4-({5-[(3R,5R)-3-amino-5-fluoropipendine-1-carbonyl]-2-[1-(cyclopropylmethyl)-1H-pyrrolo[2,3-b]pyridin-2-yl]-7-methoxy-1H-1,3-benzodiazol-1-yl}methyl)-1H-pyrazol-1-yl]pyridine-2-carboxylate] | 26 nM |
| COc1cccc(-n2cc(Cn3c(-c4cc5cccnc5n4CC4CC4)nc4cc(C(=O)N5CC6CCC5[C@@H]6N)cc(OC)c43)cn2)n1 (stereo partly drawn) [Example 365, (7R)-2-{2-[1-(cyclopropylmethyl)-1H-pyrrolo[2,3-b]pyridin-2-yl]-7-methoxy-1-{[1-(6-methoxypyridin-2-yl)-1H-pyrazol-4-yl]methyl}-1H-1,3-benzodiazole-5-carbonyl}-2-azabicyclo[2.2.1]heptan-7-amine] | 27 nM |
| COc1cc(-n2cc(Cn3c(-c4cc5ccccc5n4CC4CC4)nc4cc(C(=O)N5CC6CCC5[C@@H]6N)cc(OC)c43)cn2)ccn1 (stereo partly drawn) [Example 366, (7R)-2-{2-[1-(cyclopropylmethyl)-1H-indol-2-yl]-7-methoxy-1-{[1-(2-methoxypyridin-4-yl)-1H-pyrazol-4-yl]methyl}-1H-1,3-benzodiazole-5-carbonyl}-2-azabicyclo[2.2.1]heptan-7-amine] | 28 nM |
| COc1cc(C(=O)N2CC3CCC2[C@@H]3N)cc2nc(-c3cc4cccnc4n3CC3CC3)n(Cc3cnn(-c4ccccc4)c3)c12 (stereo partly drawn) [Example 367, (7R)-2-{2-[1-(cyclopropylmethyl)-1H-pyrrolo[2,3-b]pyridin-2-yl]-7-methoxy-1-[(1-phenyl-1H-pyrazol-4-yl)methyl]-1H-1,3-benzodiazole-5-carbonyl}-2-azabicyclo[2.2.1]heptan-7-amine] | 29 nM |
| COc1cc(C(=O)N2CC3CCC2[C@@H]3N)cc2nc(-c3cc4ccccc4n3CC3CC3)n(Cc3cnn(-c4cccnc4)c3)c12 (stereo partly drawn) [Example 368, (7R)-2-{2-[1-(cyclopropylmethyl)-1H-indol-2-yl]-7-methoxy-1-{[1-(pyridin-3-yl)-1H-pyrazol-4-yl]methyl}-1H-1,3-benzodiazole-5-carbonyl}-2-azabicyclo[2.2.1]heptan-7-amine] | 29 nM |
| COc1cccc(-n2cc(Cn3c(-c4cc5cccnc5n4CC4CC4)nc4cc(C(=O)N5C[C@H](N)C[C@@H](F)C5)cc(OC)c43)cn2)n1 [Example 369, (3R,5R)-1-{2-[1-(cyclopropylmethyl)-1H-pyrrolo[2,3-b]pyridin-2-yl]-7-methoxy-1-{[1-(6-methoxypyridin-2-yl)-1H-pyrazol-4-yl]methyl}-1H-1,3-benzodiazole-5-carbonyl}-5-fluoropiperidin-3-amine] | 29 nM |
| COc1cc(C(=O)N2CC3CCC2[C@@H]3N)cc2nc(-c3cc4cccnc4n3CC3CC3)n(Cc3cnn(-c4ccc(O)nc4)c3)c12 (stereo partly drawn) [Example 370, 5-[4-({5-[(7R)-7-amino-2-azabicyclo[2.2.1]heptane-2-carbonyl]-2-[1-(cyclopropylmethyl)-1H-pyrrolo[2,3-b]pyridin-2-yl]-7-methoxy-1H-1,3-benzodiazol-1-yl}methyl)-1H-pyrazol-1-yl]pyridin-2-ol] | 30 nM |
| COc1cc(C(=O)N2CC3CCC2[C@@H]3N)cc2nc(-c3cc4cccnc4n3CC3CC3)n(Cc3cnn(-c4ccc(F)cn4)c3)c12 (stereo partly drawn) [Example 371, (7R)-2-{2-[1-(cyclopropylmethyl)-1H-pyrrolo[2,3-b]pyridin-2-yl]-1-{[1-(5-fluoropyridin-2-yl)-1H-pyrazol-4-yl]methyl}-7-methoxy-1H-1,3-benzodiazole-5-carbonyl}-2-azabicyclo[2.2.1]heptan-7-amine] | 30 nM |
